Reference: patent publication US6368788B1 (priority 1987, dated 2002)
Like-named read-outs stand apart in the source and are kept apart here. Marks after values point to notes of the source that are not given here.

What was measured:
E-RFC = assay: In vitro sheep red blood cell rosette forming response of gastritis patients' T-lymphocytes; type: cell-based, human; conditions: 22 patients
From the text: (§1) Twenty two patients (all men aged 18-30 years) suffering from chronic primary gastritis and gastro-duodenitis were entered into the trial. Diagnosis was based on physical examination, and clinical and laboratory investigations including roentgenoscopy and endoscopic examination of the stomach and duodenum. Patient entry criteria was further conditioned on the results of laboratory tests for i) pre-treatment immune indices (i.e., numbers of lymphocytes, T-, and B-lymphocytes, etc.; TABLE 46) and ii) the in vitro sheep red blood cell rosette forming response of T-lymphocytes to L-Glu-L-Trp, (i.e., whether in vitro incubation of patient peripheral blood lymphocytes with L-Glu-L-Trp increased the percentage of E-RFC). […] These twelve patients were entered into the trial.

C. albicans = type: in vivo, mice; conditions: PDR
[1] = test system: antibody-producing cells in spleen; assay: Antibody plaque forming cell response to sheep red blood cells (Jerne); type: in vivo, (CBAxC57B1/6) F1 mice; conditions: for PFC/10^6 splenocytes / PFC/Spleen / Spleen weight/Body weight / Splenocytes per Spleen: s-rbc immunized mice, day 5
[2] = Chronic liver disease: jaundice and systemic toxicity; set-up: species or system human; conditions: in vivo
[3] = test system: peripheral blood lymphocytes; assay: Protocol A3 Group 1B: atypical pyoderma; type: in vivo, human
[4] = test system: E-rosette forming (CD2^+) T-lymphocytes; assay: In vitro incubation of the children's lymphocytes: E-rosette forming (CD2+) T-lymphocytes; type: cell-based, human
T-lymphocyte function = assay: Naval specialists with occupational immunologic impairments; type: in vivo, human; conditions: 3 daily intranasal doses of 100 mcg
Experimental: A clinical trial was conducted of 152 naval specialists (aged 20-40 years) with evidence of occupational immunologic impairments resulting from their exposure to radiation and occupational toxins in the Kosomolets nuclear submarine sinking off the coast of […]. L-Glu-L-Trp was evaluated for its possible effects on cellular and/or humoral immunity. Approximately 87% of the servicemen entered into the trial had moderate to severely impaired T-lymphocyte functional activity, (i.e., evidenced by decreased LMIR and blastogenesis with Con-A) and reduced neutrophil phagocytic activity (i.e., 30-40% of normal). Immune parameters were determined before and after a routine 21-24 day rest period, during a normal rest/recuperation and training rotation. Servicemen were divided into two groups, the first (control) group received no treatment, and the second (experimental) group of 88 servicemen received three consecutive daily intranasal doses of 100 mcg L-Glu-L-Trp.

[5] = Lymphatic infections (lymphangitis); type: in vivo; conditions: 100 μg im, 1 μg/kg intranasally or intralymphatically
[6] = Chronic primary gastritis and gastro-duodenitis; type: in vivo, human
From the text: as §1
For determining normal values, the control group consisted of 28 normal healthy volunteers aged 17-23.
Patients received L-Glu-L-Trp im daily at a dosage of 100 μg for 5 days in combination with their conventional ongoing treatment.

Herpes vulgaris = conditions: in combination with interferon; 7-10 outbreaks per year before
[7] = After Combination L-Glu-L-Trp Therapy
[8] = After L-Glu-L-Trp Combination Therapy
[9] = Group 1B atypical pyoderma, after L-Glu-L-Trp Therapy (n = 10)
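Wherever ATIII is given: hospitalized children with severe pneumonia, thrombohemorrhagic syndrome plus secondary immune deficiency, lab values taken before and after treatment versus healthy normal controls, comparison group given antibiotic therapy alone.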
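Wherever Clotting time (citrated whole blood-recalcified) is given: hospitalized children with severe pneumonia, thrombohemorrhagic syndrome plus secondary immune deficiency, lab values taken before and after treatment versus healthy normal controls, comparison group given antibiotic therapy alone.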
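Wherever FDP is given: hospitalized children with severe pneumonia, thrombohemorrhagic syndrome plus secondary immune deficiency, lab values taken before and after treatment versus healthy normal controls, comparison group given antibiotic therapy alone.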
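Wherever Fibrinogen Concentration is given: hospitalized children with severe pneumonia, thrombohemorrhagic syndrome plus secondary immune deficiency, lab values taken before and after treatment versus healthy normal controls, comparison group given antibiotic therapy alone.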

L-Glu-L-Trp
Patients with a positive in vitro response (increased E-RFC) (E-RFC): 55%
Germ Tube (%) (C. albicans; 0.1 μg/kg ip): 35* %
Germ Tube (%) (C. albicans; 1 μg/kg ip): 34* %
Germ Tube (%) (C. albicans; 10 μg/kg ip): 35* %
Germ Tube (%) (C. albicans; 100 μg/kg ip): 26* %
Germ Tube (%) (C. albicans; 300 μg/kg ip): 37%
B-Lymphocytes [7]: 0.84 ± 0.06 ×10^9/L
B-Lymphocytes % Normal Value [7]: (175%)
IgA [7]: 67 ± 4.8
IgA % Normal Value [7]: (163%)
IgG [7]: 138 ± 5.6
IgG % Normal Value [7]: (97%)
IgM [7]: 153 ± 6.9
IgM % Normal Value [7]: (89%)
Leukocytes [7]: 11.0 ± 0.01 ×10^9/L
Leukocytes % Normal Value [7]: (98%)
Lymphocytes [7]: 0.36 ± 0.01 ×10^9/L
Lymphocytes % Normal Value [7]: (116%)
T-Lymphocytes [7]: 1.1 ± 0.01 ×10^9/L
T-Lymphocytes % Normal Value [7]: (167%)
ATIII [8]: 85 ± 2.1 % of normal
Clotting time (citrated whole blood-recalcified) [8]: 129 ± 2.3^
FDP [8]: 96 ± 6.7 µg/mL
Fibrinogen Concentration [8]: 4.2 ± 0.4 g/L
Fibrinolytic Activity [8]: 186 ± 11.5 min
Hagemann factor dependent fibrinolysis [8]: 72 ± 6.8
Kaolin-Cephalin clotting time [8]: 58 ± 1.2
Prothrombin time [8]: 22 ± 0.1
Thrombotest [8]: 33 ± 1.2
Whole blood clotting time [8]: 465 ± 16.2 s
Increase of frequency of PFC per 10^6 splenocytes ([1]; 1 μg/kg): 2.8 fold
Increase of number of PFC in spleen over saline control ([1]; 1 μg/kg): 2.7 fold
PFCs per spleen vs saline control ([1]; 10 μg/kg): 1.8 fold
PFCs per spleen vs saline control ([1]; 100 μg/kg): 1.6 fold
PFC/10^6 splenocytes ([1]; 1 μg/kg): 69.2 ± 11.3
PFC/Spleen ([1]; 1 μg/kg): 11722 ± 2005
Spleen weight/Body weight ([1]; 1 μg/kg): 0.42 ± 0.01
Splenocytes per Spleen ([1]; 1 μg/kg): 168.6 ± 3.6 ×10^6
PFC/10^6 splenocytes ([1]; 10 μg/kg): 48.8 ± 9
PFC/Spleen ([1]; 10 μg/kg): 7854 ± 1631
Spleen weight/Body weight ([1]; 10 μg/kg): 0.43 ± 0.01
Splenocytes per Spleen ([1]; 10 μg/kg): 159 ± 8.5 ×10^6
PFC/10^6 splenocytes ([1]; 100 μg/kg): 41.7 ± 6
PFC/Spleen ([1]; 100 μg/kg): 6731 ± 1027
Spleen weight/Body weight ([1]; 100 μg/kg): 0.44 ± 0.02
Splenocytes per Spleen ([1]; 100 μg/kg): 162.6 ± 6 ×10^6
Seropositive patients with a positive response to therapy [2]: 21 of the 29
Seropositive patients with no detectable change [2]: 8
B-Lymphocytes [3, 9]: 0.14 ± 0 ×10^9/L
B-Lymphocytes % Normal Value [3, 9]: (29%)
B-Lymphocytes (%) [3, 9]: 8.5 ± 1%
Basophils (%) [3, 9]: 0.1 ± 0%
Eosinophils (%) [3, 9]: 0.5 ± 1%
Erythrocytes [3, 9]: 4.1 ± 0.1 10^12/L
IgA [3, 9]: 2.21 ± 0 g/L
IgA % Normal Value [3, 9]: (117%)
IgG [3, 9]: 16.6 ± 2 g/L
IgG % Normal Value [3, 9]: (154%)
IgM [3, 9]: 1.64 ± 0 g/L
IgM % Normal Value [3, 9]: (104%)
Leukocytes [3, 9]: 6.2 ± 1 ×10^9/L
Leukocytes % Normal Value [3, 9]: (93%)
Lymphocytes [3, 9]: 2.14 ± 0 ×10^9/L
Lymphocytes % Normal Value [3, 9]: (76%)
Lymphocytes, % [3, 9]: 34.5 ± 4%
Monocytes, % [3, 9]: 2.3 ± 1.6%
Neutrophils, % [3, 9]: 66.5 ± 3.2%
T-Lymphocytes [3, 9]: 0.87 ± 0 ×10^9/L
T-Lymphocytes % Normal Value [3, 9]: (51%)
T-Lymphocytes (%) [3, 9]: 55.1 ± 6%
T-helper [3, 9]: 0.53 ± 0 ×10^9/L
T-helper % Normal Value [3, 9]: (40%)
T-helper (%) [3, 9]: 32.1 ± 3%
T-suppressor [3, 9]: 0.49 ± 0 ×10^9/L
T-suppressor % Normal Value [3, 9]: (126%)
T-suppressor (%) [3, 9]: 23.1 ± 5%
Blast Transform., Con-A ([3]; Group 1B, L-Glu-L-Trp Therapy): 96.1 ± 4 % of PBL
Blast Transform., PHA ([3]; Group 1B, L-Glu-L-Trp Therapy): 87.5 ± 5 % of PBL
Blast Transform., Staph-A ([3]; Group 1B, L-Glu-L-Trp Therapy): 75.3 ± 1 % of PBL
Clinical outcome ([3]; in vivo): did not turn out to be effective clinically
Percentage of E-rosette forming (CD2+) T-lymphocytes [4]: increase in the percentage of E-rosette forming (CD2^+) T-lymphocytes
T-lymphocyte function, T4/T8 ratio, granulocyte lysosomal cation proteins (T-lymphocyte function): pronounced increase
Clinical outcome [5]: controls the progression of lymphangitis
B-Lymphocytes [6, 8]: 0.14 ± 0.02 ×10^9/L
B-Lymphocytes % Normal Value [6, 8]: (97%)
B-Lymphocytes (%) [6, 8]: 7.2 ± 1.5%
Null Lymphocytes [6, 8]: 0.9 ± 0.05 ×10^9/L
Null Lymphocytes % Normal Value [6, 8]: (145%)
Null Lymphocytes (%) [6, 8]: 37.3 ± 2.0 %
T-Lymphocytes [6, 8]: 1.04 ± 0.04 ×10^9/L
T-Lymphocytes % Normal Value [6, 8]: (96%)
T-Lymphocytes (%) [6, 8]: 55.4 ± 2.1 %
Clinical outcome ([6]; in vivo): more rapid recovery
Outbreaks after treatment (Herpes vulgaris): less than one outbreak per year
